Data on 13 substances can be found in paper PMC12811252 (The EMBO Journal, 2025).

Read-outs that look alike come from different tables or passages of the source. Where only a bound is given, the exact number is not on record here.

Assay [1] concerns the target OT-I TCR. The experiment in a line: SPR steady-state binding of soluble OT-I TCR to immobilised pMHC (H-2Kb) at 37 °C: apparent and active KD. Also noted: species or system mouse.
In assay [2] the target is OT-I TCR. Also noted: method as in Stepanek et al, 2014. As to conditions: SPR equilibrium binding analysis, 25 °C, mean of two independent replicates; ref Stepanek et al, 2014; cited from earlier work.
The subject of assay [3] is pre-selection OT-I double-positive thymocytes. Also noted: method as in Daniels 2006. As to conditions: relative to OVA (N4) = 1; ref Daniels 2006; cited from earlier work.
Assay [4] concerns CD8+ Jurkat cells expressing the OT-I TCR. Also noted: method as in Lo 2019. As to conditions: relative to OVA (N4) = 1; ref Lo 2019; cited from earlier work.
Assay [5] concerns naive or anergic mouse OT-I CD8+ T cells. Also noted: method as in 2 sources, ref Lo et al, 2023 ||| ref Lo 2023. As to conditions: relative to OVA (N4) = 1; values with * excluded; ref Lo 2023; cited from earlier work.
Assay [6] has as its target OT-I TCR. As to the kind of experiment: SPR binding of OT-I TCR to inactive (denatured or unfolded) pMHC, Bmax constrained to pMHC immobilisation level. Also noted: species or system mouse. Particulars: unit not printed in the file (text: µM), read-out: KD for inactive pMHC, single experiment.
Target sequence in this assay (as listed by the source): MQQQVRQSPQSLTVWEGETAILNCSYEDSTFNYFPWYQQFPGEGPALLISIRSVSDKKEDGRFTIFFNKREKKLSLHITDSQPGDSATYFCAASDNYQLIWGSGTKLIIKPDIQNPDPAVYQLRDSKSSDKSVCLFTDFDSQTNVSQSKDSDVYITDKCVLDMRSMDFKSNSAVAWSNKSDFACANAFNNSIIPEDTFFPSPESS
Target sequence in this assay (as listed by the source): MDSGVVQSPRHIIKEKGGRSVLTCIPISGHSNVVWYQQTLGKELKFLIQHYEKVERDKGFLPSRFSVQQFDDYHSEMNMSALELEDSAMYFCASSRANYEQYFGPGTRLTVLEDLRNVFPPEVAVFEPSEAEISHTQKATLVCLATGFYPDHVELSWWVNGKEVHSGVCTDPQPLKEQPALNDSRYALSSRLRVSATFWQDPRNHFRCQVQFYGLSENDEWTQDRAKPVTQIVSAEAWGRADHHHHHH
For assay [7], the target named is OT-I TCR. Particulars: 25 °C; ref Alam 95; read-out: Original KD, Alam 95 25ºC; cited from earlier work. An excerpt:
Supplement 44318_2025_644_MOESM5_ESM.zip/KDs - Original vs Revised column.xlsx, sheet "KDs - Original vs Revised colum" | column: Original KD from indicated studies in columns

Assay [8] addresses OT-I TCR. As to conditions: ref Alam 99, cited from earlier work.
Assay [9] has as its system naive CD8+ T cells from OT-I transgenic mice. Particulars: 2D affinity AcKa; ref Huang 2010; cited from earlier work. The source says:
This striking observation spur ...

For a further assay, the system named is naive OT-I splenocytes. Particulars: relative to OVA (N4) = 1; ref Huang 2010; cited from earlier work.
Assay [10] deals with OT-I TCR. Particulars: file OT1 Discrimination Published Original KD; repeated per study block; ref Alam 99, Rosette; cited from earlier work. An excerpt:
Supplement 44318_2025_644_MOESM7_ESM.zip/OT1 Discrimination Published Original KD.csv, table

Assay [11] has as its system OT-I T cells from transgenic mice. Also noted: method as in Hogquist 1995. As to conditions: relative to OVA (N4) = 1; ref Hogquist 1995; cited from earlier work.
For assay [12], the target named is VSV pMHC: […] on H-2K^b with human beta-2 microglobulin (mouse | human | not stated). As to the kind of experiment: SPR. On the technique in general: SPR reads the build-up and loss of mass on a sensor chip optically.
The subject of the next assay is OT-I T cells. Also noted: method as in Zehn 2009. As to conditions: relative to OVA (N4) = 1; ref Zehn 2009; cited from earlier work.
[13] abbreviates: replicate 1 (1st value of the list in KD_active_calculated.csv), 37 °C, unit not given in the file (Table 1: µM), read-out: KD active, single SPR experiment.
Where [14] appears, read: replicate 2 (2nd value of the list), 37 °C, unit inferred, read-out: KD active, single SPR experiment.
[15] abbreviates: replicate 3 (3rd value of the list), 37 °C, unit inferred, read-out: KD active, single SPR experiment.
Where [16] appears, read: SPR, single repeats, read-out: KDs active.
Setting [17] is: replicate 4 (4th value of the list), 37 °C, unit inferred, read-out: KD active, single SPR experiment.
Setting [18] is: replicate 5 (5th value of the list), 37 °C, unit inferred, read-out: KD active, single SPR experiment.
Setting [19] is: replicate 6 (6th value of the list), 37 °C, unit inferred, read-out: KD active, single SPR experiment.
Setting [20] is: 25 °C, read-out: Original KD, Alam 99 (25ºC).
Where [21] appears, read: 37 °C, * excluded values, because kinetics showed biphasic behaviour, read-out: Original KD, Alam 99 (37ºC).

For the substance SIIKFEKL [Peptide K4], the Kd on OT-I TCR [1] (setting [13]) was 2710 µM; at OT-I TCR [1] (setting [14]) it was 3290 µM; at OT-I TCR [1] (setting [15]), 2190 µM.

As for RTYTYEKL [Catnb], the Kd was 2040 µM at OT-I TCR [1] (setting [16]); 2040 µM on OT-I TCR [1] (setting [13]); 1880 µM at OT-I TCR [1] (setting [14]); 1900 µM on OT-I TCR [1] (setting [15]); 2040 µM on OT-I TCR [1] (setting [17]); 1950 µM at OT-I TCR [1] (setting [18]). Further, the Kd at OT-I TCR [1] (setting [19]) amounted to 2380 µM.

ISFKFDHL [Cappa1]: the Kd at OT-I TCR [1] (setting [13]) is 2470 µM; at OT-I TCR [1] (setting [14]), 6920 µM; on OT-I TCR [1] (setting [15]), 9740 µM; at OT-I TCR [1] (setting [17]), 3280 µM; at OT-I TCR [1] (setting [18]), 2800 µM; at OT-I TCR [1] (setting [19]), 2530 µM.

In the case of ATLVFHNL [Stat3], the Kd on OT-I TCR [1] (setting [13]) is 2270 µM; at OT-I TCR [1] (setting [14]), 4730 µM; on OT-I TCR [1] (setting [15]), 3740 µM.

On to SIIQFERL [Peptide Q4R7], for which the Kd on OT-I TCR [1] (setting [13]) was 184 µM; on OT-I TCR [1] (setting [14]) it was 273 µM; on OT-I TCR [1] (setting [15]), 317 µM; at OT-I TCR [2], 288 µM. The “Potency, Daniels 2006” value in assay [3] is reported as 81. In addition, the “Potency, Lo 2019” value in [4] is given as 3.464. In addition, in assay [5], the “Potency, Lo 2023” value is reported as 14.78.

In the case of “RGYNYEKL [V-OVA, its pMHC is not correctly folded]”, the Kd at OT-I TCR [6] (replicate 1 (first line of Denatured KD.csv)) was 1560 µM; at OT-I TCR [6] (replicate 2 (second line of Denatured KD.csv)), 2630 µM; at OT-I TCR [7], 29.8 µM; on OT-I TCR [8] (setting [20]), 18.2 µM; on OT-I TCR [8] (setting [21]) it was 12.7 µM; on OT-I TCR [10], 19 µM. For the same substance, the “2D Huang 37¼C (AcKa)” value in assay [9] is recorded as 0.0000029. Besides, in the assay on naive OT-I splenocytes, the “Potency, Huang 2010” value was 417000.

Regarding VGPRYTNL [Mapk1], the Kd was determined as 4240 µM on OT-I TCR [1] (setting [14]), 1810 µM at OT-I TCR [1] (setting [15]) and 2010 µM on OT-I TCR [1] (setting [17]).

With EIINFEKL [Peptide E1], the Kd stood at 2800 µM at OT-I TCR [1] (setting [14]); 12400 µM at OT-I TCR [1] (setting [15]); 3870 µM on OT-I TCR [1] (setting [17]); 3520 µM at OT-I TCR [1] (setting [18]); 2180 µM on OT-I TCR [1] (setting [19]); 2320 µM on OT-I TCR [1] (replicate 7 (7th value of the list), 37 °C, unit inferred, read-out: KD active, single SPR experiment). For the same substance, the Kd was 3030 µM at OT-I TCR [1] (replicate 8 (8th value of the list), 37 °C, unit inferred, read-out: KD active, single SPR experiment); 7240 µM at OT-I TCR [1] (replicate 9 (9th value of the list), 37 °C, unit inferred, read-out: KD active, single SPR experiment); 2140 µM at OT-I TCR [1] (replicate 10 (10th value of the list), 37 °C, unit inferred, read-out: KD active, single SPR experiment); 22.6 µM on OT-I TCR [7]; 20.3 µM at OT-I TCR [8] (setting [20]); 20.3 µM at OT-I TCR [10]. In assay [9], the “2D Huang 37¼C (AcKa)” value is listed as 0.0000054. For the same substance, the “Potency, Hogquist 1995” value in [11] was 5010000. In assay [3], the “Potency, Daniels 2006” value is given as 56524. The “Potency, Huang 2010” value with naive OT-I splenocytes is 167000.

On to SIAAFASL [Null], for which the values for the Kd at OT-I TCR [1] (setting [13]), at OT-I TCR [1] (setting [14]) and at OT-I TCR [1] (setting [15]) were 4610 µM, 3520 µM and 2350 µM, respectively.

As for “OT-I TCR (soluble; murine variable domains, human constant domains, artificial interchain disulphide)”, the Kd in assay [12] is 1580 µM.

For SIIRFEKL [Peptide R4], the Kd on OT-I TCR [1] (setting [16]) is 4270 µM; at OT-I TCR [1] (repeat 3, read-out: Revised KDs (This Study)), 4270 µM; on OT-I TCR [1] (repeat 6, read-out: Revised KDs (This Study)), 4270 µM; at OT-I TCR [1] (setting [13]), 7640 µM; at OT-I TCR [1] (setting [14]), 3760 µM; at OT-I TCR [1] (setting [15]), 4270 µM. Further, the Kd on OT-I TCR [1] (setting [17]) is 5030 µM; at OT-I TCR [1] (setting [18]) it was 6430 µM; on OT-I TCR [1] (setting [19]), 4280 µM; on OT-I TCR [7], 57.1 µM; at OT-I TCR [8] (setting [20]), 40.1 µM; on OT-I TCR [8] (setting [21]), 26.9 µM. Moreover, the Kd at OT-I TCR [10] is 40.1 µM. In addition, the “2D Huang 37¼C (AcKa)” value in assay [9] is reported as 0.0000017. In the assay with naive OT-I splenocytes, the “Potency, Huang 2010” value is on record as 167000.

SIIEFEKL [Peptide E4]: the Kd is 3370 µM on OT-I TCR [1] (setting [13]), 4000 µM at OT-I TCR [1] (setting [14]), 2730 µM at OT-I TCR [1] (setting [15]) and above 1000 µM at OT-I TCR [2].

Turning to SIIVFEKL [Peptide V4], the Kd on OT-I TCR [1] (setting [13]) is 907 µM; at OT-I TCR [1] (setting [14]), 791 µM; on OT-I TCR [1] (setting [15]) it was 628 µM; at OT-I TCR [1] (setting [17]), 879 µM; at OT-I TCR [2], above 1000 µM. Moreover, the “Potency, Zehn 2009” value with OT-I T cells is 680. In assay [5], the “Potency, Lo 2023” value is on record as 2016.
